Source: patent publication US20260215418A1, “HYDROCARBON ALCOHOLS AND THEIR DERIVATIVES AS SYNERGISTS IN PESTICIDE ACTIVITY” (priority 2022, published 2026)

Key:
Format in all cases: in vivo
[1] = system: Musca domestica L.; assay: Contact test on non-porous tile, Musca domestica
Procedure: 1 ml of Composition 1 was applied to the tile. […] 1 ml of Composition 8a was distributed on the tile. […] 1 ml of Composition 8a was distributed on a tile. […] At the end of the 30 minutes, the flies were transferred to an untreated area.
1 ml of Composition 3 was applied to the tile. […] 1 ml of Composition 8c was distributed on the tile. […] 1 ml of Composition 8c was distributed on a tile. […] At the end of the 30 minutes, the flies were transferred to an untreated area.
1 ml of Composition 9a was distributed on the tile. […] 1 ml of Composition 9a was distributed on a tile. […] At the end of the 30 minutes, the flies were transferred to an untreated area. […] 1 ml of Composition 10a was distributed on the tile. […] 1 ml of Composition 10a was distributed on a tile. […] At the end of the 30 minutes, the flies were transferred to an untreated area. […] 1 ml of Composition 8c was distributed on the tile. […] 1 ml of Composition 8c was distributed on a tile. […] At the end of the 30 minutes, the flies were transferred to an untreated area.
1 ml of Composition 5a, was distributed on the tile. […] 1 ml of Composition 6a was distributed on the tile. […] 1 ml of Composition 7a was distributed on the tile.
1 ml of Composition 3 was distributed on the tile. […] 1 ml of Composition 9a was distributed on the tile. […] 1 ml of Composition 11a was distributed on a tile. […] 1 ml of Composition 12a was distributed on a tile.
1 ml of Composition 3 was distributed on the tile. […] 1 ml of Composition 17a was distributed on a tile. […] 1 ml of Composition 18a was distributed on a tile. […] Each experiment (A-C) was conducted in duplicate.
1 ml of Composition 23a was distributed on the tile. […] 1 ml of Composition 20a was distributed on a tile. […] Each experiment (A-B) was conducted in duplicate.
1 ml of Composition 3 was distributed on the tile. […] 1 ml of Composition 25a was distributed on a tile. […] Each experiment (A-B) was conducted in duplicate.
1 ml of Composition 23a was distributed on the tile. […] 1 ml of Composition 27a was distributed on a tile. […] Each experiment (A-B) was conducted in duplicate.
1 ml of Composition 26a was distributed on a tile. […] 1 ml of Composition 26b was distributed on a tile. […] 1 ml of Composition 26c was distributed on a tile.
1 ml of Composition 22a was distributed on a tile. […] 1 ml of Composition 22b was distributed on a tile. […] 1 ml of Composition 22c was distributed on a tile.
1 ml of Composition 23a was distributed on the tile. […] 1 ml of Composition 44a was distributed on a tile.
1 ml of Composition 33 was distributed on a tile. […] 1 ml of Composition 33 was distributed on a tile. […] At the end of the 30 minutes, the flies were transferred to an untreated area.
1 ml of Composition 1 was distributed on the tile. […] 1 ml of Composition 34 was distributed on a tile. […] 1 ml of Composition 34 was distributed on a tile. […] At the end of the 30 minutes, the flies were transferred to an untreated area.
1 ml of Composition 3 was distributed on the tile. […] 1 ml of Composition 31a was distributed on a tile. […] 1 ml of Composition 31b was distributed on a tile. […] 1 ml of Composition 31b was distributed on a tile. […] At the end of the 30 minutes, the flies were transferred to an untreated area. […] 1 ml of Composition 38a was distributed on a tile. […] 1 ml of Composition 38a was distributed on a tile. […] At the end of the 30 minutes, the flies were transferred to an untreated area.
G) According to the invention. 1 ml of Composition 40a was distributed on a tile. […] Subsequently, after waiting for the solvent to evaporate, 10 flies were placed on top of the treated til

[2] = system: Blatta lateralis; assay: Contact test on non-porous tile, Blatta lateralis; conditions: Blatta lateralis
Procedure: 1 ml of Composition 24 was distributed on the tile. […] 1 ml of Composition 20c was distributed on a tile. […] 1 ml of Composition 20d was distributed on a tile.
1 ml of Composition 24 was distributed on the tile. […] 1 ml of Composition 28 was distributed on a tile. […] Each experiment (A-B) was conducted in duplicate.
1 ml of Composition 24 was distributed on the tile. […] 1 ml of Composition 21 was distributed on a tile.
1 ml of Composition 4b was distributed on the tile. […] 1 ml of Composition 31c was distributed on a tile. […] 1 ml of Composition 31d was distributed on a tile. […] 1 ml of Composition 31d was distributed on a tile.
1 ml of Composition 24 was distributed on the tile. […] 1 ml of Composition 35 was distributed on a tile. […] 1 ml of Composition 40b was distributed on a tile. […] 1 ml of Composition 42 was distributed on a tile.

[3] = system: Blattella germanica; assay: Contact test on non-porous tile, Blattella germanica; conditions: 24 h; for Mortality %/time (h) (application): Table 37, Blattella germanica, concentrations in mg/ml in label
Procedure: 1 ml of Composition 36 was distributed on the tile. […] 1 ml of Composition 37 was distributed on a tile.

Compound | synergizing effect on Azamethiphos ([1]; Musca domestica L., synergist applied with Azamethiphos) | synergizing effect on Cypermethrin ([1]; Musca domestica L., synergist applied with Cypermethrin) | synergizing effect on Pyrethrins ([1]; Musca domestica L., synergist applied with Pyrethrins) | synergizing effect on Spinosad ([1]; Musca domestica L., synergist applied with Spinosad) | mortality at 390 µg/mL ([1]; Musca domestica, single substance alone, 0.39 mg/ml, 48 h, read-out: Mortality %/time (h)) [%] | mortality at 680 µg/mL ([1]; Musca domestica, single substance alone, 0.68 mg/ml, 48 h, read-out: Mortality %/time (h)) [%] | mortality at 1050 µg/mL ([1]; Musca domestica, single substance alone, 1.05 mg/ml, 48 h, read-out: Mortality %/time (h)) [%] | mortality at 2340 µg/mL ([1]; Musca domestica, single substance alone, 2.34 mg/ml, 48 h, read-out: Mortality %/time (h)) [%] | synergizing effect on Cypermethrin ([2]; synergist applied with Cypermethrin) | synergizing effect on Imidacloprid ([2]; synergist applied with Imidacloprid) | Mortality % ([3]; Example 34, 25° C, insects on treated tile) [%] | Mortality %/time (h) (application) [3]
CCCCC(O)CO (stereo not shown) [1,2-hexandiol] | excellent synergizing effect | excellent synergizing effect | good synergizing effect | good synergizing effect | 4 | 7 | 10 | 23 | good synergizing effect | excellent synergizing effect |  | 
O=[N+]([O-])NC1=NCCN1Cc1ccc(Cl)nc1 [Composition 36, Imidacloprid, reference compound] |  |  |  |  |  |  |  |  |  |  | 27 | 27/24 ^ %
Oleic alcohol [Composition 37] |  |  |  |  |  |  |  |  |  |  |  | 7/24 ^ %
